Here are results for one compound from patent US6455561B1, “Heterocyclic compounds and their therapeutic use” (Darwin Discovery, Ltd., priority 2000, dated 2002).

The test concerns eosinophilia. As to the kind of experiment: Guinea pig lung model (inhibition of eosinophilia). The format is in vivo. Particulars: dosed at 3 mg/kg. How it is done:
Activity in a guinea pig lung model is measured using the procedures described by Mauser et al, Am. Rev. Respir. Dis. 148:1623 (1993), and Am. J. Respir. Crit. Care Med. 152:467 (1995).

Turning to `COCc1cc2c(C(=O)Nc3c(C)noc3C)ccc(OC)c2o1` [Example 10, 7-Methoxy-2-methoxymethylbenzofuran-4-carboxylic Acid (3,5-dimethylisoxazol-4-yl)-amide], the inhibition of eosinophilia turned out to be 35%.
